This note sets out measurements from patent publication US7659251B2, “Ligand for G-protein coupled receptor FPRL2” (priority 2004, dated 2010).

The test concerns the target T1, FPRL1 (Homo sapiens, UniProt P25090).
T1 construct: expressed in transfected cells; host or cells: CHO-K1 (with or without Galpha16 and apoaequorin)
T1 sequence (P25090 1-351): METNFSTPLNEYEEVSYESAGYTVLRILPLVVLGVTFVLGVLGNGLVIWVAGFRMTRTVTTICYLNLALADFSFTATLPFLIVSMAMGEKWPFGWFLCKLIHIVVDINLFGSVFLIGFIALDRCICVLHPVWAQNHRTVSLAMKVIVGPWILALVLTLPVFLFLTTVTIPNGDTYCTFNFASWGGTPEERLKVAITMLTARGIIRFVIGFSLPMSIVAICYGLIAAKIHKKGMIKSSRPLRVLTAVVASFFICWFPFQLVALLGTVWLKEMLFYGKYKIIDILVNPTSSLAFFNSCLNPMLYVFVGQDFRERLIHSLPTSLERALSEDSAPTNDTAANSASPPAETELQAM
Description: Competition binding on FPRL1-expressing CHO-K1 cells, tracer [125I]-WKYMVm. The note with it: up to concentrations of 3 μM. How it is done: FPRL2, FPRL1 and FPR-expressing CHO-K1 cells were plated in 24 wells plates (200,000 cells per well for FPRL2, and 100,000 cells per well for the two other receptors). The next day, the cells were washed twice with a KRH buffer containing 280 mM saccharose and, for FPRL1 and FPR, 0.1 % NaN3. […] Cells were washed twice with ice cold buffer, total radioactivity was recovered with 1 M […] and counted in a gamma counter for […]

`CC[C@H](C)[C@H](NC(=O)[C@H](CCSC)NC(=O)CNC(=O)[C@H](CC(C)C)NC(=O)[C@H](CCSC)NC(C)=O)C(=O)N[C@@H](CCCCN)C(=O)N[C@@H](CC(N)=O)C(=O)N[C@@H](CO)C(=O)N[C@@H](CC(C)C)C(=O)N[C@@H](Cc1ccccc1)C(=O)NCC(=O)N[C@@H](CO)C(=O)N[C@H](C(=O)N[C@@H](CCC(=O)O)C(=O)N[C@H](C(=O)N[C@@H](Cc1c[nH]c2ccccc12)C(=O)N1CCC[C@H]1C(=O)N[C@@H](Cc1c[nH]c2ccccc12)C(=O)N[C@@H](CCC(N)=O)C(=O)N[C@H](C(=O)N[C@@H](CC(C)C)C(=O)O)C(C)C)[C@@H](C)O)C(C)C` [F2L]: the “competition for FPRL1 binding” value was “no competition”.
